Reference: patent US9974760B2, “Compositions and methods for treating cancer” (Chemo-Enhanced LLC, priority 2011, dated 2018)
Entries after “also recorded” stand apart in the source; their conditions may differ.

Experiments:
[1] = test system: L3.6 pancreatic cells; format: in vivo; settings: taxol 3 mg/ml, C6-ceramide 10 mg/ml, i.p. 3×/wk, vs control
Procedure: Treatment was started 4 days after L3.6 cell injection with thrice weekly (3×/wk) intraperitoneal (i.p.) injections of paclitaxel 3.0 mg/ml with or without C6-ceramide (10 mg/ml) for 2 weeks. Mouse survival (FIGS. 2A and 2C), tumor volume (in cm^3; FIG. 2B), mouse body weight (in grams) were recorded (FIG. 2E). The average rate of tumor development was calculated by total tumor volume dividing by total number of days monitored (FIG. 2C).
SCID/Beige/Taconic nude male mice (22-25 g; 6-8 weeks old) were ear tagged and randomized into 4 different groups (Control, Ceramide, gemcitabine, Ceramide+gemcitabine) combining 5 mice each prior to inoculation subcutaneous (s.c.) with 2×10^6 L3.6 cells in a 0.1 ml volume into the internal surface of the right thigh. Treatment was started 4 days after L3.6 cell injection with thrice weekly (3×/wk) intraperitoneal (i.p.) injections of gemcitabine (two doses: 5.0 and 10.0 mg/ml) with or without C6-ceramide (10 mg/ml) for 2 weeks. Mouse survival (FIGS. 3A, 3B, and 3E) and tumor volume (in cm^3; FIGS. 3C and 3D) were recorded (FIG. 3E). Pancreatic cancer cell lines, including L3.6 cells (FIG. 3F), Panc-1 cells (FIG. 3G) and MIA-PaCa2 cells (MIA, FIG. 3H) were cultured in basic DMEM medium and were treated with gemcitabine (Gem, 1 μg/ml). Mitomycin C was always present in the media to prevent cell proliferation from occurring.
SCID/Beige/Taconic male mice were inoculated with 2×10^6 L3.6 pancreatic cells and treated […] 4 days post tumor implant with thrice weekly (3×/wk) intraperitoneal (I.P.) injections of paclitaxel (taxol) 3.0 mg/ml or gemcitabine (Gem) 10 mg/ml after treatment and were autopsied when near death (as per IRB committee). Mouse survival, tumor volume (in cm^3), and body weight (in grams) were recorded. Average rate of tumor development was calculated by dividing total tumor volume by total number of days monitored.
The possible combination effect of C6-ceramide on gemcitabine-induced cytotoxicity (in vitro) and regression (in vivo) of the L3.6 pancreatic cancer cell was also tested according to the methods described in Examples 2 and 3.

[2] = test system: ERK; test: Western Blot of ERK activation in L3.6 cells; format: cell-based
Procedure: (§1) Pancreatic cancer cell lines L3.6 cells were left untreated or treated with gemcitabine (Gem, 1 μg/ml) or taxol (1.5 μg/ml) in the presence or absence of C6-ceramide (10 μg/ml) for 2, 4 and 6 hours, AKT/mTORC1 and ERK activation were detected by Western Blot using indicated antibodies (FIGS. 5A and 5C). p-AKT (S473) and p-ERK at 4 hour time intervals for each treatment quantified (FIGS. 5B and 5D). L3.6 cells were pretreated with various inhibitors including PI3K/AKT inhibitor LY 294002 (LY, 1 μM), mTORC1 inhibitor rapamycin (100 nM), MEK/ERK inhibitor U0126 (1 μg/ml) or gemcitabine (1 μg/ml) for 48 hours, cell death was detected 48 hours later (FIG. 5E).
(§2) As described in Cao et al. (2009) Sci. Signal, 2:RA17, aliquots of 30-40 μg of protein from each sample (treated as indicated in the legends) were separated by 10% SDS-polyacrylamide gel electrophoresis (SDS-PAGE) and transferred onto a polyvinylidene difluoride (PVDF) membrane (Millipore, Bedford, Mass.). After blocking with 10% instant nonfat dry milk for 1 hour, membranes were incubated with specific antibodies overnight at 4° C. followed by incubation with secondary antibodies (HRP-conjugated anti-rabbit or anti-mouse IgG at the appropriate dilutions) for 60 minutes to 1 hour at room temperature. Antibody binding was detected with the enhanced chemiluminescence (ECL) detection system (Amersham Biosciences, Piscataway, N.J.).

[3] = test system: AKT/mTORC1; test: Western Blot of AKT/mTORC1 activation in L3.6 cells; format: cell-based; settings: for PI3K/AKT/mTOR activation: Taxol alone
Procedure: as §1, §2

SMILES	mouse survival [1]	tumor volume [1]	ERK activation / signaling ([2]; L3.6 cells, Western Blot)	effect on taxol induced pro-survival PI3K/AKT/mTOR pathway ([3]; C6-ceramide added to taxol)	effect on C6-ceramide inhibition of ERK activation ([2]; added to C6-ceramide)	PI3K/AKT/mTOR activation [3]	PI3K/AKT/mTOR activation ([3]; listed as Taxol)	effect on C6-ceramide induced AKT de-phosphorylation or inhibition ([3]; added to C6-ceramide)
CCCCCCCCCCCCC/C=C/[C@@H](O)[C@H](CO)NC(=O)CCCCC [C6-ceramide, N-hexanoyl-D-sphingosine]	minimal effects	minimal effects	induced moderate survival of AKT/mTORC1 and ERK activation; also recorded: inhibited	dramatically reduces	–	–	–	–
CC(=O)O[C@H]1C(=O)[C@@]2(C)[C@H]([C@H](OC(=O)c3ccccc3)[C@]3(O)C[C@H](OC(=O)[C@H](O)[C@@H](NC(=O)c4ccccc4)c4ccccc4)C(C)=C1C3(C)C)[C@]1(OC(C)=O)CO[C@@H]1C[C@@H]2O [paclitaxel]	minimal effects	minimal effects	–	–	enhanced	no effect	strongly induce	dramatically enhanced
